Laboratory results published in US20190167675A1, “METHODS AND COMPOSITIONS FOR APPETITE CONTROL AND WEIGHT MANAGEMENT” (SHANGHAI YAO YUAN BIOTECHNOLOGY CO., LTD., priority 2016, published 2019).
“Also recorded” adds a separate entry of the source.

Experiments:
DEG/ENaC ion channels = assay: Short-term food intake in normal mice; type: in vivo, C57BL6 mice; settings: 15 minutes before feeding
Protocol: 13 weeks old C57BL6 Female and male mice were singly housed for 2 weeks before the experiment. Mice were starved Sam-6 μm. […] The administrated volume was 10 ml/kg body weight. 15 minutes later, normal chow solid food was provided to the mice and the food consumption at designated time points were measured. P-values were calculated using t-test (unpaired, 2 tails) for data points. *=p<0.05, **=p<0.01, ***=p<0.001
15 weeks old C57BL6 female mice were singly housed for 2 weeks before the experiment. Mice were starved Sam-6 μm. Then Benzamil (Benzamil hydrochloride hydrate) was administrated by intraperitoneal injection, 0.01-10 μmole/kg body weight (3.5621 μg 3.5621 mg/kg b.w.), or saline. The administrated volume was 10 ml/kg body weight. 15 minutes later, normal chow solid food was provided to the mice and the food consumption at designated time points were measured.

[1] = Weight change in LepR^PB obese mice; type: in vivo, LepR^PB female mice; settings: oral gavage 6 times a week for 5 weeks, 4.1 mg/kg/day Day 1-14, 12.3 mg/kg/day Day 15-35; by day 35
Protocol: 8 weeks old LepR^PB female mice were used in the experiment. LepR^PB mouse is a model of obesity, which carries a mutation in the gene for the leptin receptor. 20 mice were randomly divided into two groups. […] Amiloride was dissolved in DMSO and diluted in sterile water. […] The injection volume was 10 ml/kg. The mice in control group received 82 μl DMSO/kg/day in sterile water. Body weight was measured. The weight changes compared to the body weight on Day 14 were analyzed.

[2] = Body composition by NMR in LepR^PB obese mice; type: in vivo, LepR^PB female mice; settings: before and after 5-week administration
ASICs [3] = settings: cited from earlier work
ENaC = target: T1, ENaC (Homo sapiens, UniProt P37088+P51168+P51170); settings: in vitro and in vivo; cited from earlier work
T1 sequence (P37088 1-669): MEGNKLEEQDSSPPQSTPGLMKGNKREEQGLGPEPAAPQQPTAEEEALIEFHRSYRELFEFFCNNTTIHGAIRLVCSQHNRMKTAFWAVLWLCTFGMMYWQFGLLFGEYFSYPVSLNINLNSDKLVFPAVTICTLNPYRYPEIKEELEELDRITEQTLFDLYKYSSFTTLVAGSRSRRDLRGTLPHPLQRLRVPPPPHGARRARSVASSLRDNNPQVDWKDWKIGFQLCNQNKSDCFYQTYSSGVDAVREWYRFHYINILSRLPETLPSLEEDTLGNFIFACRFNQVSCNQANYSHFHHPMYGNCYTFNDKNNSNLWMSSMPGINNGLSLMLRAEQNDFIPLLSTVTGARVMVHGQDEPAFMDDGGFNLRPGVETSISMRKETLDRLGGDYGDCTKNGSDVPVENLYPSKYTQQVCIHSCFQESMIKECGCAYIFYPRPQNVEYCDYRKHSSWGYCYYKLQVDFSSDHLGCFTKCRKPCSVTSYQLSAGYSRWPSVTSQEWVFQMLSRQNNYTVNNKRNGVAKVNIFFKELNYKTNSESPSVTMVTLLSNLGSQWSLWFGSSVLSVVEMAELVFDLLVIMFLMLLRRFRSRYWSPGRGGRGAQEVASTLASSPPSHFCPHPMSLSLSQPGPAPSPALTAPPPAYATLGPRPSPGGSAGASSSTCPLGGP
T1 sequence (P51168 1-640): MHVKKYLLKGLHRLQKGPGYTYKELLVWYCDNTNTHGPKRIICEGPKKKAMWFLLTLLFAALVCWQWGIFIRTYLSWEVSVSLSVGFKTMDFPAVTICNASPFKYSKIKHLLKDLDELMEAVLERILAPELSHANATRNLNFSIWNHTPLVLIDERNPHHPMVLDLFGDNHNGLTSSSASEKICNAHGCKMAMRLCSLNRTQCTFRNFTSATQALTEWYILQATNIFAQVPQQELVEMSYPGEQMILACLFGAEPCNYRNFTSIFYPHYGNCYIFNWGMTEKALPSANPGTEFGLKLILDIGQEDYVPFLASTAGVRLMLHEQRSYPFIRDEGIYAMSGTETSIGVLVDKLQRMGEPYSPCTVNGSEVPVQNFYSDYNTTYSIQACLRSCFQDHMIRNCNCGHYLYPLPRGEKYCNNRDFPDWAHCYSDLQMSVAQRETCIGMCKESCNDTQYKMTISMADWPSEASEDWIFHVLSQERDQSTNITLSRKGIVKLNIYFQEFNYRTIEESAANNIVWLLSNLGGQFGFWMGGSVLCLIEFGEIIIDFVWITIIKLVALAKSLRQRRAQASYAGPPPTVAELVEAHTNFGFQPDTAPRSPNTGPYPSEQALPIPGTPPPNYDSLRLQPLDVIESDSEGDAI
T1 sequence (P51170 1-649): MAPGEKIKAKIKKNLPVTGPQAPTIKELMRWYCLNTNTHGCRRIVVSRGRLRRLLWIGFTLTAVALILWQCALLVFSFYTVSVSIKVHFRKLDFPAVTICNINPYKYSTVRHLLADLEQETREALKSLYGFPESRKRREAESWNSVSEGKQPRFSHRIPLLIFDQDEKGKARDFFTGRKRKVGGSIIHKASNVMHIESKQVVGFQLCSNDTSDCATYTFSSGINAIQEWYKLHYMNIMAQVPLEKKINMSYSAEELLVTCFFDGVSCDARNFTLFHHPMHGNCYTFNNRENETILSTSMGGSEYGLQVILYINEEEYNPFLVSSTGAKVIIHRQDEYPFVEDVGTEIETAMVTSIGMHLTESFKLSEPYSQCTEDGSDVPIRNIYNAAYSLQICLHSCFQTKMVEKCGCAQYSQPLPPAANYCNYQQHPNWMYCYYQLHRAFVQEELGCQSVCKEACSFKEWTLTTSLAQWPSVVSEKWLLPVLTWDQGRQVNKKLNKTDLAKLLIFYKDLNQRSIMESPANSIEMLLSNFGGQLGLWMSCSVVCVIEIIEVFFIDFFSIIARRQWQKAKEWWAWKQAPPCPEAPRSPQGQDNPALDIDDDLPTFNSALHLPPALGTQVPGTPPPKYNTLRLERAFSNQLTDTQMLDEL

[4] = guinea pig TPD model; cited from earlier work
ASICs [5] = settings: Rat DRG neurons, in vitro; cited from earlier work
ASICs [6] = settings: in vitro; cited from earlier work
[7] = mice; i.t., i.c.v., intraplantar or intravenous; cited from earlier work
ASIC = settings: cited from earlier work
homomeric ASIC1a = target: T2, homomeric ASIC1a (Homo sapiens, UniProt P78348); settings: cited from earlier work
T2 sequence (P78348 1-528): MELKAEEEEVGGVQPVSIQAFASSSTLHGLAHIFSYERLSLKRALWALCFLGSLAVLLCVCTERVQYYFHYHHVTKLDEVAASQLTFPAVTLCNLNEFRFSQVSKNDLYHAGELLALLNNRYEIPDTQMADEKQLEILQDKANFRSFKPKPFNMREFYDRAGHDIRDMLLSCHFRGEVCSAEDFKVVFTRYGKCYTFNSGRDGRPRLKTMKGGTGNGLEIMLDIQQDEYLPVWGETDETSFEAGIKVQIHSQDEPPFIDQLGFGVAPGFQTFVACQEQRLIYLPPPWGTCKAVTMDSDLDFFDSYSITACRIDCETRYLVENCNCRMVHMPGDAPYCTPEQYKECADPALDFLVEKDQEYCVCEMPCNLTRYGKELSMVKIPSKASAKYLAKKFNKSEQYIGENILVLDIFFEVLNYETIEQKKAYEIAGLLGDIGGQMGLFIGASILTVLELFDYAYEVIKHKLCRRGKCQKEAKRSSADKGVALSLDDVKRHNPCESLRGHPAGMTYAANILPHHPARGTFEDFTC

heteromeric ASIC1a/2b = target: T3, heteromeric ASIC1a/2b (Homo sapiens, UniProt P78348+Q16515); settings: cited from earlier work
T3 sequence (P78348 1-528): T2 sequence (P78348 1-528)
T3 sequence (Q16515 1-563 isoform Q16515-2): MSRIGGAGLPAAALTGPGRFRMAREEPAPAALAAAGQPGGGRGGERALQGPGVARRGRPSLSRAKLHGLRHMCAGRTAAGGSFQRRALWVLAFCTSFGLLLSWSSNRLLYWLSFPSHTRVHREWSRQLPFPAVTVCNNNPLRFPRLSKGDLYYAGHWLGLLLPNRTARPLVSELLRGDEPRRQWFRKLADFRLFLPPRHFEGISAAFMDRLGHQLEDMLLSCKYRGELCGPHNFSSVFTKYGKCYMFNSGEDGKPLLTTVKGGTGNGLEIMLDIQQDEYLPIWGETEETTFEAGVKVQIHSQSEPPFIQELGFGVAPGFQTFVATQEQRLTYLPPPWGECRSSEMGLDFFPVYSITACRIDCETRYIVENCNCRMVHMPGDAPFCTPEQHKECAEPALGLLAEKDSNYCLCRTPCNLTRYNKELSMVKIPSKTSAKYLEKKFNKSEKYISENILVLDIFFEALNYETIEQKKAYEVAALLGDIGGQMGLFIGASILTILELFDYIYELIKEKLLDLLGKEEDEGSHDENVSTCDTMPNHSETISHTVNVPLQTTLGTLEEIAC

NC(N)=NC(=O)c1nc(Cl)c(N)nc1N [Amiloride, 3,5-diamino-6-chloro-N-(diaminomethylidene)pyrazine-2-carboxamide]
short-term food intake (DEG/ENaC ion channels; intraperitoneal, 1, 10 or 100 μmole/kg, male C57BL6 mice): suppressed short-term food intake
short-term food intake (DEG/ENaC ion channels; oral gavage, 1, 10 or 100 μmole/kg, female C57BL6 mice): suppressed short-term food intake
body weight change compared to Day 14, vs DMSO [1]: significant reductions in body weight; also recorded: clear reduction in weight
reduction in body fat percentage vs DMSO [2]: significantly more reduction
reduction in body fluid percentage vs DMSO [2]: not significantly different; also recorded: no significant difference
IC50 (ASICs [3]): 10 to 100 µM

N=C(NC(=O)c1nc(Cl)c(N)nc1N)NC1CCN(C(=O)c2ccc(C(=O)N3CCC(NC(=N)NC(=O)c4nc(Cl)c(N)nc4N)CC3)cc2)CC1 [NVP-QBE170]
blockage of ENaC (ENaC): potent and selective blockage of ENaC
safety window over existing ENaC blockers, in terms of hyperkalaemia [4]: significantly enhanced safety window

CC(C)C1c2cc(C3CC3c3ccc4cc(C(=N)N)ccc4c3)ccc2CCN1C (stereo not drawn) [A-317567]
potency relative to Amiloride on ASICs currents (ASICs [5]): 1.8-15 fold

N=C(N)c1ccc(OCCCCCOc2ccc(C(=N)N)cc2)cc1 [pentamidine]
ASICs blockage activity (ASICs [6]): potent ASICs blockage activity

N=C(N)c1ccc(-c2cc3ccc(C(=N)N)cc3[nH]2)cc1 [DAPI, 4′,6-diamidino-2-phenylindole]
ASICs blockage activity (ASICs [6]): potent ASICs blockage activity

APETx2
excitotoxicity, spasms, convulsions, motor paralysis, ataxia upon in vivo injections [7]: never produce excitotoxicity, spasms, convulsions, motor paralysis, nor ataxia

N=C(N)c1ccc(/N=N/Nc2ccc(C(=N)N)cc2)cc1 [diminazene]
ASICs blockage activity (ASICs [6]): potent ASICs blockage activity

CC(C)C1c2cc(/C=C/c3ccc4cc(C(=N)N)ccc4c3)ccc2CCN1C (stereo not drawn) [10a]
potency relative to A-317567 (ASIC): about 3 fold

CC(C)C1c2cc(C#Cc3ccc4cc(C(=N)N)ccc4c3)ccc2CCN1C (stereo not drawn) [10b]
potency relative to A-317567 (ASIC): about 3 fold

PcTx1
excitotoxicity, spasms, convulsions, motor paralysis, ataxia upon in vivo injections [7]: never produce excitotoxicity, spasms, convulsions, motor paralysis, nor ataxia
inhibition of homomeric ASIC1a (homomeric ASIC1a): nanomolar potency
inhibition of heteromeric ASIC1a/2b (heteromeric ASIC1a/2b): nanomolar potency
